The target in test [1] is T1, Lysine-specific histone demethylase 1A (Homo sapiens, UniProt O60341). Description: Inhibition of recombinant LSD1 (unknown origin) preincubated for 10 mins in presence of H3K4Me2 measured after 30 mins by measuring fluorescence intensity by fluorescence based microplate reader.
The test system of another test is MGC-803. The experiment in a line: Antiproliferative activity against human MGC-803 cells incubated for 48 hrs measured by MTT assay. Format: functional, cell-based. The following applies: MGC-803, 48 h.
Another test concerns KYSE-450. Description: Antiproliferative activity against human KYSE-450 cells incubated for 48 hrs measured by MTT assay. Format: functional, cell-based. The settings on record: KYSE-450, 48 h.
For another test, the system named is HCT-116. The experiment in a line: Antiproliferative activity against human HCT-116 cells incubated for 48 hrs measured by MTT assay. Format: functional, cell-based. The following applies: HCT-116, 48 h.
Test [2] has as its target T1, Lysine-specific histone demethylase 1A. Description: Inhibition of LSD1 in human MGC-803 cells assessed as increase in methylation of H3K4 at 24 micromol/L. Format: cell-based. The settings on record: dose 24.0 µmol/L.
The target is the same in test [3]. The experiment in a line: Inhibition of LSD1 in human MGC-803 cells assessed as increase in methylation of H3K9 at 24 micromol/L. The settings on record: dose 24.0 µmol/L. Format: cell-based.

The values below come from ChEMBL document CHEMBL5346906, “Discovery of novel tranylcypromine-based derivatives as LSD1 inhibitors for gastric cancer treatment” (Eur J Med Chem, 2023).

The source made the active and inactive calls. The calls are words filed in the database; no cut-off is given here.

For orientation: IC50 means the concentration at which inhibition is half-maximal. `O=C(NC1CC(F)(F)C1)c1cccc(CN[C@@H]2C[C@H]2c2ccc(F)c(F)c2)c1`: the IC50 in test [1] amounted to 0.115 µM; with MGC-803 it was 54.9 µM; with KYSE-450, 64.5 µM; in the test with HCT-116 it was 58.2 µM.
Take `Cc1ccc(NC(=O)c2cccc(CN[C@@H]3C[C@H]3c3ccc(F)c(F)c3)c2)cc1`: the IC50 in test [1] was determined as 0.0364 µM.
With `O=C(Nc1cccc(S(=O)(=O)N2CCOCC2)c1)c1cccc(CN[C@@H]2C[C@H]2c2ccc(F)c(F)c2)c1`, the IC50 in test [1] came out at 0.0326 µM; with MGC-803 it was 29.7 µM; in the test with KYSE-450, 38.7 µM; with HCT-116, 36.1 µM.
As to `CN(Cc1ccccc1)C(=O)c1cccc(CN[C@@H]2C[C@H]2c2ccc(F)c(F)c2)c1`, in test [1], the IC50 came to 0.0421 µM.
Still for that read-out and setting: the figure for `O=C(Nc1ccc(N2CCOCC2)c(F)c1)c1cccc(CN[C@@H]2C[C@H]2c2ccc(F)c(F)c2)c1` is 0.249 µM; for `NC1CCN(C(=O)c2cccc(CN[C@@H]3C[C@H]3c3ccc(F)c(F)c3)c2)CC1` it is 0.668 µM.
On to `COC(=O)c1cccc(NC(=O)c2cccc(CN[C@@H]3C[C@H]3c3ccc(F)c(F)c3)c2)c1`, for which the IC50 in test [1] is 0.0321 µM; in the test on MGC-803, 50.1 µM; in the test on KYSE-450, 67.9 µM; in the test on HCT-116, 45.7 µM.
For `CN1CCN(S(=O)(=O)c2cccc(NC(=O)c3cccc(CN[C@@H]4C[C@H]4c4ccc(F)c(F)c4)c3)c2)CC1`, the IC50 in test [1] stood at 0.325 µM.
Same read-out and setting: then `O=C(O)c1cccc(NC(=O)c2cccc(CN[C@@H]3C[C@H]3c3ccc(F)c(F)c3)c2)c1`, with 0.479 µM.
As for `O=C(O)c1ccc(CN2CCC(CN[C@@H]3C[C@H]3c3ccccc3)CC2)cc1` [GSK2879552], the IC50 in the test on MGC-803, in the test on KYSE-450 and with HCT-116 was above 64 µM in each case.
For `COCCNC(=O)c1cccc(CN[C@@H]2C[C@H]2c2ccc(F)c(F)c2)c1`, the IC50 in test [1] amounted to 0.231 µM.
On to `CCCCNC(=O)c1cccc(CN[C@@H]2C[C@H]2c2ccc(F)c(F)c2)c1`, for which the IC50 in test [1] turned out to be 0.203 µM.
On the same count and under the same terms, then `CN1CCN(C(=O)c2cccc(CN[C@@H]3C[C@H]3c3ccc(F)c(F)c3)c2)CC1`, with 0.222 µM.
Take `CCN1CCN(c2ccc(NC(=O)c3cccc(CN[C@@H]4C[C@H]4c4ccc(F)c(F)c4)c3)cc2)CC1`: the IC50 in test [1] stood at 0.0428 µM; with MGC-803, 28 µM; in the test with KYSE-450 it was 24.8 µM; in the test with HCT-116, 28.1 µM.
Consider `O=C(c1cccc(CN[C@@H]2C[C@H]2c2ccc(F)c(F)c2)c1)N1CCN(c2ccccc2)CC1`, for which the IC50 in test [1] was 0.0563 µM.
Regarding `NCC1CCN(C(=O)c2cccc(CN[C@@H]3C[C@H]3c3ccc(F)c(F)c3)c2)CC1`, the IC50 in test [1] was 0.181 µM; in the test on MGC-803 it was above 128 µM; in the test with KYSE-450, above 128 µM; in the test on HCT-116, above 128 µM.
Consider `c1ccc([C@@H]2C[C@H]2NC2CCNCC2)cc1`, for which the IC50 in the test on MGC-803, in the test with KYSE-450 and with HCT-116 was above 64 µM each time. Besides, the inhibition entry in test [2] and in test [3] was “Active” in each case.
In the case of `O=C(c1cccc(CN[C@@H]2C[C@H]2c2ccc(F)c(F)c2)c1)N1CCC(O)CC1`, the IC50 in test [1] amounted to 0.141 µM.
Turning to `NC(=O)CNC(=O)c1cccc(CN[C@@H]2C[C@H]2c2ccc(F)c(F)c2)c1`, in test [1], the IC50 is 0.108 µM.
Still for that read-out and setting: the figure for `O=C(NCC1CCNCC1)c1cccc(CN[C@@H]2C[C@H]2c2ccc(F)c(F)c2)c1` is 0.173 µM.
Consider `NC(=O)C1CCN(C(=O)c2cccc(CN[C@@H]3C[C@H]3c3ccc(F)c(F)c3)c2)CC1`, for which the IC50 in test [1] is 0.108 µM; in the test with MGC-803 it was above 128 µM; with KYSE-450, above 128 µM; with HCT-116, above 128 µM.
As to `O=C(c1cccc(CN[C@@H]2C[C@H]2c2ccc(F)c(F)c2)c1)N1CCc2ccccc21`, the IC50 came out at 0.0261 µM in test [1], 33.7 µM in the test on MGC-803, 51.5 µM with KYSE-450 and 50.1 µM with HCT-116.
As to `O=C(O)c1cccc(CN[C@@H]2C[C@H]2c2ccc(F)c(F)c2)c1`, the IC50 in test [1] was 0.517 µM.
As for `O=C(c1cccc(CN[C@@H]2C[C@H]2c2ccc(F)c(F)c2)c1)N1CC2CCCCC2C1` (stereo not given in full), the half-inhibitory concentration (IC50) in test [1] came out at 0.058 µM; with MGC-803 it was 51.2 µM; in the test with KYSE-450 it was 68.9 µM; with HCT-116 it was 55.7 µM.
For `CN1CCN(c2ccc(NC(=O)c3cccc(CN[C@@H]4C[C@H]4c4ccc(F)c(F)c4)c3)cc2)CC1`, in test [1], the IC50 came to 0.249 µM.
